{"source": "patent US20240016795A1", "about": "“BROMODOMAIN INHIBITORS FOR ANDROGEN RECEPTOR-DRIVEN CANCERS” (FORMA Therapeutics, Inc., priority 2020, published 2024)", "key": {"[1]": {"system": "human kinases and disease-relevant mutant variants", "experiment": "KINOMEscan screen", "assay_type": "binding"}, "MDA-MB-453": {"system": "MDA-MB-453", "experiment": "10-day CellTiter-Glo antiproliferative assay, MDA-MB-453", "assay_type": "cell-based", "conditions": "Homo sapiens, MDA-MB-453, 240 h; 10-day exposure, CellTiter-Glo; AR High, ER −, Her2 +/−; read-out: IC50 (μM), MDA-MB-453", "method": "(§1) Breast cell lines were cultured according to the distributor's recommendations. The following day, cells were exposed to compounds up to 10 days. Cell viability was assessed using a CellTiter-Glo® assay (Promega) at the end of the incubation period. The growth inhibitory effect was assessed by the concentration inhibiting growth by 50% using a nonlinear regression equation and a variable slope (Graphpad Prism). The mRNA expression levels for the androgen receptor (HUGO: AR) was determined from the DepMap Portal database (release 19Q2)."}, "CAMA1": {"system": "CAMA1", "experiment": "10-day CellTiter-Glo antiproliferative assay, CAMA1", "assay_type": "cell-based", "conditions": "Homo sapiens, CAMA-1, 240 h, 10-day exposure, AR High, ER +, Her2 −", "method": "as §1"}, "HCC1187": {"system": "HCC1187", "experiment": "10-day CellTiter-Glo antiproliferative assay, HCC1187", "assay_type": "cell-based", "conditions": "Homo sapiens, HCC1187, 240 h, 10-day exposure, AR High, ER −, Her2 −", "method": "as §1"}, "BT549": {"system": "BT549", "experiment": "10-day CellTiter-Glo antiproliferative assay, BT549", "assay_type": "cell-based", "conditions": "Homo sapiens, BT-549, 240 h, 10-day exposure, AR Low, ER −, Her2 −", "method": "as §1"}, "MFM223": {"system": "MFM223", "experiment": "10-day CellTiter-Glo antiproliferative assay, MFM223", "assay_type": "cell-based", "conditions": "Homo sapiens, MFM-223, 240 h, 10-day exposure, AR Low, ER −, Her2 −", "method": "as §1"}, "MDA-MB-231": {"system": "MDA-MB-231", "experiment": "10-day CellTiter-Glo antiproliferative assay, MDA-MB-231", "assay_type": "cell-based", "conditions": "Homo sapiens, MDA-MB-231, 240 h, 10-day exposure, AR Low, ER −, Her2 −", "method": "as §1"}, "VCaP": {"system": "VCaP", "experiment": "10-day prostate cancer cell proliferation assay, VCaP", "assay_type": "cell-based", "conditions": "Homo sapiens, VCaP, 240 h; 10 days exposure; WT, AR amplification, androgen-dependent", "method": "(§2) Prostate cell lines were obtained from ATCC or DSMZ and cultured according to the distributor's recommendations. Prostate cancer cells were plated and incubated overnight. […] Cell viability was assessed using a CellTiter-Glo® assay (Promega) after 10 days drug exposure. The growth inhibitory effect was assessed by the concentration inhibiting growth by 50% using a nonlinear regression equation and a variable slope (Graphpad Prism)."}, "DU 145": {"system": "DU 145", "experiment": "10-day prostate cancer cell proliferation assay, DU 145", "assay_type": "cell-based", "conditions": "Homo sapiens, DU-145, 240 h; 10 days exposure; AR negative", "method": "as §2"}, "[2]": {"system": "AR-negative prostate cancer cell lines DU145 and PC-3", "experiment": "10-day proliferation assay, AR-negative prostate cancer cell lines", "assay_type": "cell-based", "conditions": "10-day assay", "method": "Two AR-negative prostate cancer cell lines DU145 and PC-3 were also evaluated.\nas §2"}, "XBP1": {"system": "XBP1", "experiment": "Taqman gene expression in AR-positive breast cancer cells, XBP1", "assay_type": "cell-based", "conditions": "24 hours, read-out: IC50, XBP1 mRNA", "method": "AR-positive breast cancer cells were exposed to increasing concentrations of compounds for 24 hours. RNA was extracted and gene expression measured using Taqman® assays for TMPRSS2 and XBP1."}, "KLK3": {"system": "KLK3", "experiment": "qPCR gene expression in AR-v7+ prostate cancer cells, KLK3", "assay_type": "cell-based", "conditions": "24 h", "method": "(§3) AR-v7+ prostate cancer cells were exposed to compounds 1, 2, 3, or 4 for 24 h. RNA was extracted and gene expression was measured by qPCR using Taqman® primer-probes. GAPDH was used as a housekeeping gene."}, "TMPRSS2 [3]": {"system": "TMPRSS2", "experiment": "qPCR gene expression in AR-v7+ prostate cancer cells, TMPRSS2", "assay_type": "cell-based", "conditions": "24 h", "method": "as §3"}, "TMPRSS2 [4]": {"system": "TMPRSS2", "experiment": "qPCR gene expression in VCaP, TMPRSS2", "assay_type": "cell-based", "conditions": "Homo sapiens, 24 h", "method": "(§4) RNA was extracted using Qiacube RNAeasy Mini (Qiagen). For all genes tested, the qPCR reactions were carried out in triplicate with 250 ng RNA per reaction and Taqman® primer-probes. GAPDH was used as a housekeeping gene."}, "FKBP5 [5]": {"system": "FKBP5", "experiment": "qPCR gene expression in VCaP, FKBP5", "assay_type": "cell-based", "conditions": "Homo sapiens, 24 h", "method": "as §4"}, "SORD [6]": {"system": "SORD", "experiment": "qPCR gene expression in VCaP, SORD", "assay_type": "cell-based", "conditions": "Homo sapiens, 24 h", "method": "as §4"}, "TMPRSS2 [7]": {"system": "TMPRSS2", "experiment": "qPCR gene expression in 22Rv1, TMPRSS2", "assay_type": "cell-based", "conditions": "Homo sapiens, 22Rv1, 24 h", "method": "as §4"}, "FKBP5 [8]": {"system": "FKBP5", "experiment": "qPCR gene expression in 22Rv1, FKBP5", "assay_type": "cell-based", "conditions": "Homo sapiens, 22Rv1, 24 h", "method": "as §4"}, "SORD [9]": {"system": "SORD", "experiment": "qPCR gene expression in 22Rv1, SORD", "assay_type": "cell-based", "conditions": "Homo sapiens, 22Rv1, 24 h", "method": "as §4"}, "AR target genes": {"system": "AR target genes", "experiment": "Reduction of AR target genes in 22Rv1 cells", "assay_type": "cell-based", "conditions": "Homo sapiens, 24 hr exposure", "method": "as §4"}, "H3K27Ac": {"system": "H3K27Ac", "experiment": "H3K27Ac western blot in a prostate cancer cell line", "assay_type": "cell-based"}, "AR-v7": {"system": "AR-v7", "experiment": "AR-v7 protein level by western blot in prostate cancer cells", "assay_type": "cell-based"}, "[10]": {"system": "AR+ triple negative breast cancer xenograft", "experiment": "AR+ triple negative breast cancer cell line derived xenograft", "assay_type": "in vivo, NOD SCID mice", "conditions": "50 mg/kg orally daily", "method": "Briefly, AR-positive breast cancer tumor cells (1×107) were implanted subcutaneously in the flank of 6-8-week-old NOD SCID mice. Mice were randomized, and treatment started when mean tumor size reached 160 mm^3 (8 mice per cohort). […] Tumor volume (TV) was measured twice weekly by caliper and the tumor volume (mm^3) calculated as follows: TV=a×b×b/2, where “a” and “b” are long and short diameters of a tumor, respectively.\nThe average body weight loss was 3.7%.\nThe study was completed using methods analogous to those described in Example 7, above.\nThree dosing cycles were completed for mice within these cohorts.\nMice in the 30 mg/kg cohort were dosed daily for three weeks.\nTumor volume was assessed at Day 14, Day 17, Day 21, Day 24, and Day 27 of the study."}}}
{"smiles": "COC(=O)N1c2ccc3c(nc([C@H](O)c4cc(F)ccc4OC)n3[C@@H]3CCC[C@@H](C(=O)O)C3)c2CC[C@@H]1C", "note": "[Compound 1, (1R,3R)-3-[(7S)-2-[(R)-(5-fluoro-2-methoxyphenyl)(hydroxy)methyl]-6-(methoxycarbonyl)-7-methyl-3H,6H,7H,8H,9H-imidazo[4,5-f]quinolin-3-yl]cyclohexane-1-carboxylic acid]", "values": [{"measurement": "binding affinity for kinases", "setting": "[1]", "result": "no to low binding affinity"}, {"measurement": "IC50", "setting": "MDA-MB-453", "result": "< 0.2", "unit": "µM"}, {"measurement": "IC50", "setting": "CAMA1", "result": "< 0.2", "unit": "µM"}, {"measurement": "IC50", "setting": "HCC1187", "result": "0.2 to 0.5", "unit": "µM"}, {"measurement": "IC50", "setting": "BT549", "result": "> 1", "unit": "µM"}, {"measurement": "IC50", "setting": "MFM223", "result": "> 1", "unit": "µM"}, {"measurement": "IC50", "setting": "MDA-MB-231", "result": "> 1", "unit": "µM"}, {"measurement": "IC50", "setting": "VCaP", "result": "500 to 1000", "unit": "nM"}, {"measurement": "IC50", "setting": "DU 145", "result": "> 1000", "unit": "nM"}, {"measurement": "antiproliferative effect, AR-negative cell lines", "setting": "[2]", "result": "inactive"}, {"measurement": "IC50", "setting": "XBP1", "result": "< 100", "unit": "nM"}, {"measurement": "IC50", "setting": "KLK3", "result": "10 to 50", "unit": "nM"}, {"measurement": "IC50", "setting": "TMPRSS2 [3]", "result": "< 10", "unit": "nM"}, {"measurement": "IC50", "setting": "TMPRSS2 [4]", "result": "0.01 to 0.05", "unit": "µM"}, {"measurement": "IC50", "setting": "FKBP5 [5]", "result": "> 0.1", "unit": "µM"}, {"measurement": "IC50", "setting": "SORD [6]", "result": "> 0.1", "unit": "µM"}, {"measurement": "IC50", "setting": "TMPRSS2 [7]", "result": "< 0.01", "unit": "µM"}, {"measurement": "IC50", "setting": "FKBP5 [8]", "result": "> 0.1", "unit": "µM"}, {"measurement": "IC50", "setting": "SORD [9]", "result": "> 0.1", "unit": "µM"}, {"measurement": "IC50", "setting": "AR target genes", "result": "< 500", "unit": "nM"}, {"measurement": "H3K27Ac level", "setting": "H3K27Ac", "result": "reduces H3K27Ac in a concentration-dependent manner"}, {"measurement": "AR-v7 reduction maintained after removal of compound", "setting": "AR-v7; 22Rv1, after a 24 hr exposure", "result": 72, "unit": "h"}, {"measurement": "AR-v7 protein level", "setting": "AR-v7; androgen-independent (AR-v7+) prostate cancer cells, western blot", "result": "reduced"}, {"measurement": "average body weight loss", "setting": "[10]", "result": 3.7, "unit": "%"}, {"measurement": "tumor growth inhibition (TGI)", "setting": "[10]; end of treatment, versus vehicle control", "result": 104, "unit": "%"}]}
